Among the test systems are MOLT-4 leukemia; SK-MEL-28 melanoma; HCT-15 colon; OVCAR-5 ovarian; 786-0 renal; MALME-3M melanoma; TK-10 renal; SNB-19 CNS; HT29 colon; HL-60(TB) leukemia; U251 CNS; NCI-H23 lung; OVCAR-4 ovarian; KM12 colon; ACHN renal; MDA-N; M14 melanoma; SK-MEL-2 melanoma; NCI-H226 lung; MCF7 breast.
Common to all, as to assay: NCI-60 cell line screen, 48 h

Each structure is given as a SMILES string.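 48-hour exposure; five concentrations; linearly interpolated endpoints. The concentration for full growth arrest is given as TGI.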 Where only a bound is given, the exact number is not on record here.

As for `O=[N+]([O-])c1ccc(-c2nn3c(C45CC6CC(CC(C6)C4)C5)nnc3s2)c(Cl)c1`, the TGI in the experiment with MOLT-4 leukemia, in the experiment on SK-MEL-28 melanoma, with HCT-15 colon, in the experiment with OVCAR-5 ovarian, in the experiment with 786-0 renal and with MALME-3M melanoma was greater than 100 µM in each case. Moreover, the TGI in the experiment with TK-10 renal, with SNB-19 CNS, with HT29 colon, in the experiment on HL-60(TB) leukemia, in the experiment with U251 CNS and in the experiment on NCI-H23 lung was greater than 100 µM each time. Besides, the TGI in the experiment with OVCAR-4 ovarian, with KM12 colon, with ACHN renal, with MDA-N, in the experiment on M14 melanoma and with SK-MEL-2 melanoma was greater than 100 µM in each case. In addition, in the experiment with NCI-H226 lung, the TGI is greater than 100 µM.

For `C1CSCC2(COC2)CSCCSCC2(COC2)CS1`, the TGI in the experiment on MOLT-4 leukemia, in the experiment on SK-MEL-28 melanoma, in the experiment on HCT-15 colon, in the experiment on OVCAR-5 ovarian, in the experiment with 786-0 renal and in the experiment with TK-10 renal was greater than 100 µM each time. Further, the TGI in the experiment with SNB-19 CNS, with MCF7 breast, with HT29 colon, with HL-60(TB) leukemia, in the experiment on U251 CNS and in the experiment with NCI-H23 lung was greater than 100 µM in each case. Also, the TGI with OVCAR-4 ovarian, with KM12 colon, with MDA-N and in the experiment with M14 melanoma was greater than 100 µM each time.

For `CC1=CCC(C(C)(C)NC(=O)c2ccccc2)C/C1=N/O` (stereo not given), the TGI with MOLT-4 leukemia, in the experiment on SK-MEL-28 melanoma, in the experiment with HCT-15 colon, with OVCAR-5 ovarian, in the experiment with 786-0 renal and in the experiment with TK-10 renal was greater than 100 µM each time. The TGI in the experiment with SNB-19 CNS, in the experiment on MCF7 breast, with HT29 colon, in the experiment on HL-60(TB) leukemia, in the experiment with U251 CNS and with NCI-H23 lung was greater than 100 µM throughout. For the same compound, the TGI in the experiment on OVCAR-4 ovarian, in the experiment with KM12 colon, with MDA-N and in the experiment on M14 melanoma was greater than 100 µM in each case.

As to `NC(=O)[N+](=CC(=S)Nc1ccccc1Cl)C(N)=O`, the TGI with MOLT-4 leukemia, in the experiment with HCT-15 colon, with OVCAR-5 ovarian, in the experiment with 786-0 renal, with TK-10 renal and in the experiment on SNB-19 CNS was greater than 100 µM in each case. Also, the TGI in the experiment on MCF7 breast, with HT29 colon, in the experiment with HL-60(TB) leukemia, in the experiment on U251 CNS, in the experiment on NCI-H23 lung and in the experiment on OVCAR-4 ovarian was greater than 100 µM each time. Further, the TGI with KM12 colon, in the experiment with ACHN renal, in the experiment on MDA-N, in the experiment with M14 melanoma, with SK-MEL-2 melanoma and in the experiment with NCI-H226 lung was greater than 100 µM in each case.

For the compound `Cc1ccc(S(=O)(=O)N2CCSCCSCCSCCN(S(=O)(=O)c3ccc(C)cc3)CC2)cc1`, the TGI in the experiment with MOLT-4 leukemia, in the experiment on SK-MEL-28 melanoma, with OVCAR-5 ovarian, with 786-0 renal, with TK-10 renal and in the experiment on SNB-19 CNS was greater than 100 µM each time. Also, the TGI in the experiment on MCF7 breast, in the experiment on HT29 colon, with HL-60(TB) leukemia, with U251 CNS, in the experiment on NCI-H23 lung and in the experiment with OVCAR-4 ovarian was greater than 100 µM in each case. For the same compound, the TGI in the experiment on KM12 colon, in the experiment with ACHN renal, in the experiment on MDA-N, in the experiment on M14 melanoma, in the experiment with SK-MEL-2 melanoma and with NCI-H226 lung was greater than 100 µM in each case.

`COc1cc(C2c3cc4c(cc3C(=O)C3CCC(=O)N32)OCO4)cc(OC)c1O` (stereo not given): the TGI in the experiment with MOLT-4 leukemia, with SK-MEL-28 melanoma, with HCT-15 colon, in the experiment with OVCAR-5 ovarian, in the experiment with 786-0 renal and in the experiment on SNB-19 CNS was greater than 50 µM throughout. The TGI in the experiment with MCF7 breast, in the experiment with HT29 colon, in the experiment with HL-60(TB) leukemia, in the experiment with U251 CNS, in the experiment with NCI-H23 lung and with OVCAR-4 ovarian was greater than 50 µM in each case. The TGI in the experiment with KM12 colon, with ACHN renal, in the experiment on MDA-N, with M14 melanoma, with SK-MEL-2 melanoma and with NCI-H226 lung was greater than 50 µM in each case.

(Values after PubChem BioAssay (NCI).)
